Test results: ChEMBL document CHEMBL1125497, “Synthesis and anticonvulsant activity of enaminones” (J Med Chem, 1992)

Experiments:
Type in all cases: functional, Mus musculus
[1] = Antiepileptic activity in male CF1 mice 30 min after administration measured in maximum electroshock seizure(MES) test at a dose of 100 mg/kg (no. of animals treated /protected); activity value is 0/3
[2] = Antiepileptic activity in male CF1 mice 30 min after administration measured in neurological toxicity (Tox) test at a dose of 100 mg/kg (no. of animals treated /protected); activity value is 0/4
[3] = Antiepileptic activity in male CF1 mice 4 hr after administration measured in subcutaneous pentylenetetrazole (scMet) test at a dose of 100 mg/kg (no. of animals treated /protected); activity value is 0/1
[4] = Antiepileptic activity in male CF1 mice 4 hr after administration measured in neurological toxicity (Tox) test at a dose of 100 mg/kg (no. of animals treated /protected); activity value is 0/2
[5] = Antiepileptic activity in male CF1 mice 4 hr after administration measured in maximum electroshock seizure(MES) test at a dose of 100 mg/kg (no. of animals treated /protected); activity value is 0/3
[6] = Antiepileptic activity in male CF1 mice 30 min after administration measured in subcutaneous pentylenetetrazole (scMet) test at a dose of 100 mg/kg (no. of animals treated /protected); activity value is 1/1
[7] = Antiepileptic activity in male CF1 mice 30 min after administration measured in neurological toxicity (Tox) test at a dose of 300 mg/kg (no. of animals treated /protected); activity value is 0/4
[8] = Antiepileptic activity in male CF1 mice 30 min after administration measured in subcutaneous pentylenetetrazole (scMet) test at a dose of 300 mg/kg (no. of animals treated /protected); activity value is 1/1
[9] = Antiepileptic activity in male CF1 mice 4 hr after administration measured in maximum electroshock seizure(MES) test at a dose of 300 mg/kg (no. of animals treated /protected); activity value is 1/1
[10] = Dose at which anticonvulsant activity was observed in mice
[11] = Antiepileptic activity in male CF1 mice 30 min after administration measured in maximum electroshock seizure(MES) test at a dose of 300 mg/kg (no. of animals treated /protected); activity value is 1/1
[12] = Antiepileptic activity in male CF1 mice 4 hr after administration measured in subcutaneous pentylenetetrazole (scMet) test at a dose of 300 mg/kg; activity value is 0/1
[13] = Antiepileptic activity in male CF1 mice 4 hr after administration measured in neurological toxicity (Tox) test at a dose of 300 mg/kg (no. of animals treated /protected); activity value is 0/2

COC(=O)C1C(=O)C=C(Nc2ccc([N+](=O)[O-])cc2)CC1C (stereo not drawn)
Activity [1]: 0 | Activity [2]: 0 | Activity [3]: 0 | Activity [4]: 0 | Activity [5]: 0 | Activity [6]: 1

COC(=O)C1C(=O)C=C(NCc2ccc(Cl)cc2)CC1C (stereo not drawn)
Activity [7]: 0 | Activity [8]: 1 | Activity [9]: 1 | Dose [10]: >100 mg/kg | Activity [11]: 1 | Activity [12]: 0 | Activity [13]: 0
